Assay results taken from ChEMBL document CHEMBL1137948, “The design and synthesis of sulfonamides as caspase-1 inhibitors” (Bioorg Med Chem Lett, 2004).

Target: not listed separately
Assay: (§1) Inhibitory activity against caspase-1
For `O=C(O)CC(NC(=O)OCc1ccccc1)C(=O)CNS(=O)(=O)Cc1ccccc1` (centres undefined), the Ki was 18 µM.

Target: T1, Caspase-1 (Homo sapiens, UniProt P29466)
T1 sequence (P29466 whole entry): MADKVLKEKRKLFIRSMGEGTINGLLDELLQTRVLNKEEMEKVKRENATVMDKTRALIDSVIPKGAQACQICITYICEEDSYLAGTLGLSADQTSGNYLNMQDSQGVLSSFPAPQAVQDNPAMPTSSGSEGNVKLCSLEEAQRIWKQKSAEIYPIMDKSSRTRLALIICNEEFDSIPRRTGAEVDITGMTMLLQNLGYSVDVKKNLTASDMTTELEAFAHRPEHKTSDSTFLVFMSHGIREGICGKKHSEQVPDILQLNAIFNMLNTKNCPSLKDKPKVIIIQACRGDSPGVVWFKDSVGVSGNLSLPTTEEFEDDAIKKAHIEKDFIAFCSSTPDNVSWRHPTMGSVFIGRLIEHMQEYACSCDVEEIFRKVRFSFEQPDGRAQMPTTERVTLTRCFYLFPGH
Assay: as §1
Work on `O=C(O)CC(NC(=O)OCc1ccccc1)C(=O)CNS(=O)(=O)Cc1ccccc1` (centres undefined) yielded an IC50 of 168 µM. In the case of `CC(C)[C@H](NC(=O)OCc1ccccc1)C(=O)N[C@@H](C)C(=O)NC(CC(=O)O)C(=O)CNS(=O)(=O)CCc1ccccc1` (some centres undefined), the IC50 is reported as 0.072 µM and the Ki is reported as 0.004 µM. `CC(=O)N[C@@H](Cc1ccc(O)cc1)C(=O)N[C@H](C(=O)N[C@@H](C)C(=O)NC(CC(=O)O)C(=O)CCCCCc1ccccc1)C(C)C` (some centres undefined) showed an IC50 of 0.071 µM and a Ki of 0.014 µM. With `O=C(O)CC(NC(=O)OCc1ccccc1)C(=O)CCCCCc1ccccc1` (centres undefined) the IC50 was 1030 µM and the Ki was 119 µM. `C[C@H](NC(=O)[C@H](CCC(=O)O)NC(=O)OCc1ccccc1)C(=O)NC(CC(=O)O)C(=O)CNS(=O)(=O)CCc1ccccc1` (some centres undefined) gave an IC50 of 0.0253 µM and a Ki of 0.0239 µM. Work on `CC(=O)N[C@@H](Cc1ccc(O)cc1)C(=O)N[C@@H](CCC(=O)O)C(=O)N[C@@H](C)C(=O)NC(CC(=O)O)C(=O)CNS(=O)(=O)CCc1ccccc1` (some centres undefined) yielded an IC50 of 0.0034 µM and a Ki of 0.004 µM. `CC(C)[C@H](NC(=O)OCc1ccccc1)C(=O)N[C@@H](C)C(=O)NC(CC(=O)O)C(=O)CCCCCc1ccccc1` (some centres undefined) gave an IC50 of 0.976 µM and a Ki of 0.134 µM.
